Drawing on ChEMBL document CHEMBL6103557, “Novel Pyrrolidinone Urea Compounds as FPR2 Agonists for Treating Atherosclerosis and Heart Failure” (ACS Med Chem Lett, 2024), this text covers EC50 for six molecules.

For this test, the target named is T1, N-formyl peptide receptor 2 (Homo sapiens, UniProt P25090).
T1 sequence (P25090 whole entry): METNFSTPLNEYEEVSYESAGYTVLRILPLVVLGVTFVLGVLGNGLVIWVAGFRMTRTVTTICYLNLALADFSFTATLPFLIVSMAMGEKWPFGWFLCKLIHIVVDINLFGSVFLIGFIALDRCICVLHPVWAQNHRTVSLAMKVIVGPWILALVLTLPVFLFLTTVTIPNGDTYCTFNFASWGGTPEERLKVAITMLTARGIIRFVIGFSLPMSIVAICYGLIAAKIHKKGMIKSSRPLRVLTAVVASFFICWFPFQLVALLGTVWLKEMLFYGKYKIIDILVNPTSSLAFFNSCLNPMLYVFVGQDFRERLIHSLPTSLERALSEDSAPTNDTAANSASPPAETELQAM
The test is described as follows: Agonist activity at human FPR2 expressed in forskolin/IBMX-treated CHO cells incubated for 30 mins by HTRF HiRange cAMP assay. It counts as functional, cell-based. On the technique in general: Time-resolved FRET reads energy transfer from a long-lived donor to a nearby acceptor.

pEC50: −log10 of the molar value.

Molecule `O=C(Nc1ccc(Cl)cc1F)N[C@@H]1C[C@@H](CO)N(c2ccc(N3CCC(C(F)(F)F)C3)c(F)c2F)C1=O` (stereo partly specified) gave a pEC50 of 9.85.

Molecule `O=C(Nc1ccc(Cl)cc1F)N[C@@H]1C[C@@H](CO)N(c2ccc(N3CCC(C(F)F)C3)c(F)c2F)C1=O` (stereo partly specified) had a pEC50 of 9.15.

In the case of `CN(C)[C@@H]1CCN(c2ccc(N3CC[C@@H](NC(=O)Nc4ccc(C(F)(F)F)cc4F)C3=O)c(F)c2F)C1`, the pEC50 is 10.00.

In turn, `CC(C)(O)C1CCCN1c1cc(F)c(N2CCC(NC(=O)Nc3ccc(Cl)cc3F)C2=O)c(F)c1` (stereo unspecified) had a pEC50 of 9.29.

Regarding `O=C(Nc1ccc(Cl)cc1F)N[C@@H]1CCN(c2ccc(N3CCC(CO)C3)c(F)c2F)C1=O` (stereo partly specified), the pEC50 was 9.13.

Consider `CN(C)[C@H]1CN(c2ccc(N3CC[C@@H](NC(=O)Nc4ccc(Cl)cc4F)C3=O)c(F)c2F)C[C@H]1F`, for which the negative logarithm of the EC50 (pEC50) is 9.15.

As usually defined, the pEC50 is the negative decadic logarithm of the EC50, by convention in mol/L. A lower pEC50 goes with a large EC50.
